Assay: Particle size distribution of mirdametinib drug substance lots (laser diffraction)
Format: physicochemical
Conditions: mirdametinib free base
Excerpt: As used herein, “D50” or “d50”, also known as the median diameter, corresponds to the value under which 50% of the particles has a lower volume diameter. “D90” or “d90” corresponds to the value under which 90% of the particles has a lower volume diameter. The particle size may be measured using wet standard laser diffraction particle sizing techniques known in the art. One example of an instrument to measure the particle size of the dry powders is the Mastersizer 3000, manufactured by Malvern Panalytical Ltd. (Malvern, UK). As particles are often non-spherical, it is difficult and complex to provide dimensional descriptions of these non-spherical particles. As used herein, “volume diameter” refers to diameter of a sphere with equal volume of the non-spherical particle.
Mirdametinib free base (Lots #1, 2, and 3) having the properties in the table below were prepared.

Row | D10 | SMILES
1 | 4.9 μm | O=C(NOC[C@H](O)CO)c1ccc(F)c(F)c1Nc1ccc(I)cc1F [Lot 1, N-((R)-2,3-dihydroxypropoxy)-3,4-difluoro-2-(2-fluoro-4-iodo-phenylamino)benzamide]
2 | 7.6 μm | O=C(NOC[C@H](O)CO)c1ccc(F)c(F)c1Nc1ccc(I)cc1F [Lot 2, N-((R)-2,3-dihydroxypropoxy)-3,4-difluoro-2-(2-fluoro-4-iodo-phenylamino)benzamide]
